Source: patent US20250230155A1 (Vanderbilt University, priority 2021, published 2025)

Target: T1, human mAChR M4 (Homo sapiens, UniProt P08173)
T1 construct: expressed in transfected cells
T1 sequence (P08173 1-479): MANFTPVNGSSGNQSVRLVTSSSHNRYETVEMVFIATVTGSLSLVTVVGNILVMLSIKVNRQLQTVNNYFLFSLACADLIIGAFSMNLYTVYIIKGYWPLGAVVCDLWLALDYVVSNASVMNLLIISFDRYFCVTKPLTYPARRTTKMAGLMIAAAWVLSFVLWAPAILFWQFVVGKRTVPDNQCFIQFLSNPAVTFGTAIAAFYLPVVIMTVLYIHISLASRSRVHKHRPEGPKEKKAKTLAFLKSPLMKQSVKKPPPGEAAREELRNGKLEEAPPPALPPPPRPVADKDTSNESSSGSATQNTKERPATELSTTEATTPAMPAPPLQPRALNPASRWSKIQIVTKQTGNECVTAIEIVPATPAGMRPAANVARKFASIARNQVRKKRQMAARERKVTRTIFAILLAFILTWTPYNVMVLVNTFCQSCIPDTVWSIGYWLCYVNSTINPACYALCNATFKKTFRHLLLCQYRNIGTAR
Test: mAChR M4 cell-based functional assay (calcium mobilization, CHO-K1 hM4-Gqi5 cells)
Settings: for Emax at 30 µM: CHO-K1, % ACh maximum at 30 μM; for EC50: positive allosteric modulator activity, increase in the EC20 acetylcholine response, CHO-K1 hM4-Gqi5 cells, read-out: Human M4 EC50
Procedure, shortened: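 Fluorescent calcium read-out (Fluo-4 AM, FDSS, 1 Hz) in hM4-Gqi5 CHO-K1 cells, 11-point 1:3 compound series. Agonism scored on compound addition, PAM activity as increase of the 144 s EC20 acetylcholine response, antagonism as decrease of the 230 s EC80 response; four-parameter logistic fits give EC50 and Emax.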

SMILES | Emax at 30 µM (human M4) [%] | EC50 [nM] | Emax (% ACh maximum at 30 μM, human M4) [%]
Cc1cnc2c(c1)CN(c1ncc(C(=O)Nc3ccncc3)cc1C)CC2 [Example 438, 5-methyl-6-(3-methyl-7,8-dihydro-1,6-naphthyridin-6(5H)-yl)-N-(pyridin-4-yl)nicotinamide] | 88 | 517 | 
Cc1cc(C(=O)NCc2cncs2)cnc1N1CCc2ncccc2C1 [compound 62, 6-(7,8-dihydro-5H-1,6-naphthyridin-6-yl)-5-methyl-N-(thiazol-5-ylmethyl)pyridine-3-carboxamide] | 78 | 760 | 
Cc1cc(C#N)nnc1N1Cc2cc(N3CCOCC3)cnc2C(C)C1 (single isomer, unassigned) [Example 407, 5-methyl-6-(8-methyl-3-morpholino-7,8-dihydro-1,6-naphthyridin-6(5H)-yl)pyridazine-3-carbonitrile] | 91 | 611 | 
Cc1ccc(Oc2cnc3c(c2)CN(c2nnc(C#N)c(C)c2C)CC3)c(F)c1 [Example 358, 6-(3-(2-fluoro-4-methylphenoxy)-7,8-dihydro-1,6-naphthyridin-6(5H)-yl)-4,5-dimethylpyridazine-3-carbonitrile] | 82 | 320 | 
Cc1cc(C(=O)NCc2cnc(Cl)s2)cnc1N1CCc2ncccc2C1 [compound 134, N-[(2-chlorothiazol-5-yl)methyl]-6-(7,8-dihydro-5H-1,6-naphthyridin-6-yl)-5-methyl-pyridine-3-carboxamide] | 69 | 1640 | 
Cc1cc(C#N)cnc1N1CCc2ncc(-c3ccnc(C#N)c3)cc2C1 [Example 336, 4-(6-(5-cyano-3-methylpyridin-2-yl)-5,6,7,8-tetrahydro-1,6-naphthyridin-3-yl)picolinonitrile] | 49 | 258 | 
Cc1ccncc1-c1cnc2c(c1)CN(c1nnc(C#N)cc1C)CC2 [Example 322, 5-methyl-6-(3-(4-methylpyridin-3-yl)-7,8-dihydro-1,6-naphthyridin-6(5H)-yl)pyridazine-3-carbonitrile] | 86 | 1040 | 
Cc1cc(C#N)cnc1N1CCc2ncc(Nc3ccccn3)cc2C1 [Example 6] | 77 | 223 | 
Cc1cc(C(=O)N2CC(F)(F)C2)nnc1N1CCc2ncc(-c3ccnn3C)cc2C1 [Example 567, (3,3-difluoroazetidin-1-yl)(5-methyl-6-(3-(1-methyl-1H-pyrazol-5-yl)-7,8-dihydro-1,6-naphthyridin-6(5H)-yl)pyridazin-3-yl)methanone] | 75 | 70 | 
COc1ccc(Oc2cnc3c(c2)CN(c2nnc(C#N)c(C)c2C)CC3)cn1 [Example 302, 6-(3-((6-methoxypyridin-3-yl)oxy)-7,8-dihydro-1,6-naphthyridin-6(5H)-yl)-4,5-dimethylpyridazine-3-carbonitrile] | 48 | 1710 | 
Cc1cc(C(=O)NCc2cncs2)nnc1N1CCc2ncc(N3CCCn4nccc43)cc2C1 [Example 489, 6-(3-(6,7-dihydropyrazolo[1,5-a]pyrimidin-4(5H)-yl)-7,8-dihydro-1,6-naphthyridin-6(5H)-yl)-5-methyl-N-(thiazol-5-ylmethyl)pyridazine-3-carboxamide] | 95 | 5 | 
Cc1c(C#N)nnc(N2CCc3ncc(-c4cc(F)nc(F)c4)cc3C2)c1C [compound 75, 6-[3-(2,6-difluoro-4-pyridyl)-7,8-dihydro-5H-1,6-naphthyridin-6-yl]-4,5-dimethyl-pyridazine-3-carbonitrile] | 58 | 666 | 
Cc1cc(C#N)cnc1N1CCc2ncc(C(C)(O)C(F)(F)F)cc2C1 (centres unmarked) [Example 426, 5-methyl-6-(3-(1,1,1-trifluoro-2-hydroxypropan-2-yl)-7,8-dihydro-1,6-naphthyridin-6(5H)-yl)nicotinonitrile] | 95 | 577 | 
Cc1cc(C#N)cnc1N1CCc2ncc(C(F)(F)F)cc2C1 [compound 165, 5-methyl-6-[3-(trifluoromethyl)-7,8-dihydro-5H-1,6-naphthyridin-6-yl]pyridine-3-carbonitrile] | 111 | 145 | 
Clc1nc2c(c(N3CCc4ncc(N5CCCn6nccc65)cc4C3)n1)COC2 [compound 282, 2-chloro-4-(3-(6,7-dihydropyrazolo[1,5-a]pyrimidin-4(5H)-yl)-7,8-dihydro-1,6-naphthyridin-6(5H)-yl)-5,7-dihydrofuro[3,4-d]pyrimidine] |  | 302 | 
Cc1cc(C#N)cnc1N1CCc2ncc(Nc3ccnn3C)cc2C1 [Example 306, 5-methyl-6-(3-((1-methyl-1H-pyrazol-5-yl)amino)-7,8-dihydro-1,6-naphthyridin-6(5H)-yl)nicotinonitrile] | 109 | 23 | 
[2H]C1([2H])Cc2ncc(Nc3ccncc3C)cc2C([2H])([2H])N1c1ncc(C#N)cc1C [Example 610, 5-methyl-6-(3-((3-methylpyridin-4-yl)amino)-7,8-dihydro-1,6-naphthyridin-6(5H)-yl-5,5,7,7-d4)nicotinonitrile] | 70 | 59 | 
Cc1cc(C#N)cnc1N1Cc2cc(N3CCOCC3)cnc2C(C)C1 (single isomer, unassigned) [Example 408, 5-methyl-6-(8-methyl-3-morpholino-7,8-dihydro-1,6-naphthyridin-6(5H)-yl)nicotinonitrile] |  | 685 | 65
Cc1cc(C#N)cnc1N1CCc2ncc(Nc3ccncc3F)cc2C1 [Example 599, 6-(3-((3-fluoropyridin-4-yl)amino)-7,8-dihydro-1,6-naphthyridin-6(5H)-yl)-5-methylnicotinonitrile] | 96 | 7 | 
[2H]C([2H])(NC(=O)c1cc(C)c(N2CCc3ncc(C(F)(F)F)cc3C2)nn1)c1cscn1 [Example 507, 5-methyl-N-(thiazol-4-ylmethyl-d2)-6-(3-(trifluoromethyl)-7,8-dihydro-1,6-naphthyridin-6(5H)-yl)pyridazine-3-carboxamide] | 81 | 43 | 
Cc1cc(C#N)cnc1N1CCc2ncc(Nc3cccc(C(F)(F)F)c3F)cc2C1 [compound 113, 6-[3-[2-fluoro-3-(trifluoromethyl)anilino]-7,8-dihydro-5H-1,6-naphthyridin-6-yl]-5-methyl-pyridine-3-carbonitrile] | 98 | 1450 | 
Cc1cc(C#N)cnc1N1CCc2ncc(-c3cnn(Cc4ccccc4)c3)cc2C1 [compound 97, 6-[3-(1-benzylpyrazol-4-yl)-7,8-dihydro-5H-1,6-naphthyridin-6-yl]-5-methyl-pyridine-3-carbonitrile] | 81 | 680 | 
Cc1cc(C(=O)NCc2cccnc2)cnc1N1CCc2ncccc2C1 [compound 60, 6-(7,8-dihydro-5H-1,6-naphthyridin-6-yl)-5-methyl-N-(3-pyridylmethyl)pyridine-3-carboxamide] | 61 | 4720 | 
Cc1nn(C)cc1-c1cnc2c(c1)CN(c1nc(NC3CC3)nc(C)c1C)CC2 [compound 272, N-cyclopropyl-4-(3-(1,3-dimethyl-1H-pyrazol-4-yl)-7,8-dihydro-1,6-naphthyridin-6(5H)-yl)-5,6-dimethylpyrimidin-2-amine] | 78 | 466 | 
